Legend:
[1] = system: Cladosporium cladosporioides; settings: cited from earlier work
[2] = system: C. cladosporioides; settings: block containing cysteine; cited from earlier work
[3] = system: H. pylori strains (NCTC 11637, ATCC 43504); assay: Modified pellicle assay for H. pylori biofilm formation; format: cell-based, Helicobacter pylori
From the text: In this example, H. pylori strains (NCTC 11637, National Culture Collection, London, UK, and ATCC 43504, American Type Culture Collection), grown in liquid culture without shaking, were examined to determine their ability to form biofilms in the presence and absence of L-cysteine. The bacteria were screened for biofilm production using modified pellicle assay as previously described by Joshua et al. 2006 (14). The formation of pellicles at the liquid-gas interface of cultures grown without shaking was observed after 3-6 days. All isolates were grown in 13-by 125-mm glass test tubes containing 6 ml of BHI broth supplemented with 2% (w/v) β-cyclodextrin (BCD; Sigma) in the presence and absence of L-cysteine. The bacterial concentration was adjusted equivalently to approximately 0.5 McFarland standard (˜10^8 CFU/ml). The cultures were incubated under microaerobic conditions (N2 85%; O2 5%; CO2 10%) at 35° C. for 7 days without shaking. Development of pellicle and/or attached bacterial cells at interior surface of test tube at the air-liquid interface, representing as biofilm, was examined daily. In the tests using L-cysteine and N-acetyl-cysteine, increasing amounts of L-cysteine or N-acetyl-cysteine were added in increasing concentrations to the culture medium.

[4] = system: H. pylori; assay: Open-label randomized trial, eradication of Helicobacter pylori; format: in vivo, human; settings: patients with at least four eradication failures; 600 mg NAC once a day for seven days before culture-guided antibiotic regimen; standard group 4/20
Description: In this open-label randomized trial, 50% of patients with at least four H. pylori eradication failures received before culture-guided antibiotic regimen 600 mg of N-acetylcysteine (NAC) once a day for seven days. In the NAC-pretreatment group H. pylori were successfully eradicated in 13/20 and in standard group only in 4/20 patients (p<01).

SMILES	production of ATP in C. cladosporioides [1]	growth of Cladosporium cladosporioides ([1]; cultured with cysteine)	biofilm of C. cladosporioides on surface of silicone block [2]	inhibition of H. pylori biofilm formation ([3]; 2 mg/ml in culture medium)	inhibition of H. pylori biofilm formation ([3]; 10 mg/ml in culture medium)	inhibition of H. pylori biofilm formation ([3]; 20 mg/ml in culture medium)	H. pylori successfully eradicated [4]
N[C@@H](CS)C(=O)O [cysteine]	inhibited	completely and statically inhibited	not covered with biofilm				
N[C@@H](CS)C(=O)O [L-cysteine]				partly	completely	completely	
CC(=O)N[C@@H](CS)C(=O)O [N-acetylcysteine, reference compound]				partly	completely	completely	13/20

Reference: US20140128336A1, “MEDICAL PRODUCTS FOR USE IN CONDITIONS RELATED TO MICROBIAL INFECTIONS IN THE UPPER AERODIGESTIVE TRACT” (BIOHIT OYJ, priority 2011, published 2014)
